The results in this text go back to patent publication US7183415B2, “Quinoline compound” (Takeda Pharmaceutical Company Limited, priority 2001, dated 2007).

Structures are written as SMILES.

As usually defined, the melting point is the temperature, or range, at which the solid turns liquid. In turn, `Cc1c(NC(=O)c2ccc(-c3ccccc3F)cc2F)ccc2cc(CN3CCCC3)cnc12` [Example 148, 2′,3-difluoro-N-[8-methyl-3-(1-pyrrolidinylmethyl)-7-quinolinyl][1,1′-biphenyl]-4-carboxamide] had a melting point of 159 to 160 °C.

As for `Cc1cc2cc(CN3CCCC3)cnc2cc1NC(=O)c1ccc(-c2ccc(F)cc2F)cc1` [Example 214, 2′,4′-difluoro-N-[6-methyl-3-(1-pyrrolidinylmethyl)-7-quinolinyl][1,1′-biphenyl]-4-carboxamide], the melting point lay within 158 to 160 °C. With `Cc1ccc(-c2ccc(C(=O)Nc3cc4ncc(CN5CCCC5)cc4cc3C)c(F)c2)cc1` [Example 229, 3-fluoro-4′-methyl-N-[6-methyl-3-(1-pyrrolidinylmethyl)-7-quinolinyl][1,1′-biphenyl]-4-carboxamide], the melting point is 176 to 179 °C. The same measure for `CCN(CC)C(=O)CCCC1CCN(Cc2cnc3c(C)c(NC(=O)c4ccc(-c5ccc(F)cc5)cc4)ccc3c2)CC1` [Example 210, N-[3-({4-[4-(diethylamino)-4-oxobutyl]-1-piperidinyl}methyl)-8-methyl-7-quinolinyl]-4′-fluoro[1,1′-biphenyl]-4-carboxamide]: 145 to 146 °C.

The molecule `Cc1c(NC(=O)c2ccc(-c3ccccc3)c(F)c2)ccc2cc(CN3CCCC3)cnc12` [Example 151, 2-fluoro-N-[8-methyl-3-(1-pyrrolidinylmethyl)-7-quinolinyl][1,1′-biphenyl]-4-carboxamide] returned a melting point of 156 to 158 °C. As to `Cc1c(NC(=O)c2ccc(-c3cc4ccccc4o3)cc2)ccc2cc(CN3CCCC3)cnc12` (hydrate or solvate) [Example 106, 4-(1-benzofuran-2-yl)-N-[8-methyl-3-(1-pyrrolidinylmethyl)-7-quinolinyl]benzamide], the melting point fell in the range of 217 to 218 °C. In the case of `COc1cc2cc(CN3CCCCC3)cnc2cc1NC(=O)c1ccc(-c2ccc(Cl)cc2)cc1` [Example 24, 4′-chloro-N-[6-methoxy-3-(1-piperidinylmethyl)-7-quinolinyl][1,1′-biphenyl]-4-carboxamide], the melting point is 236 °C (dec.). The molecule `Cc1c(NC(=O)c2ccc(OCc3ccc(F)cc3)cc2)ccc2cc(CN3CCCCC3)cnc12` [Example 162, 4-[(4-fluorobenzyl)oxy]-N-[8-methyl-3-(1-piperidinylmethyl)-7-quinolinyl]benzamide] gave a melting point of 159 to 160 °C. The molecule `Cc1cc2cc(CN3CCCC3)cnc2cc1NC(=O)c1ccc(-c2ccc(Cl)cc2)cc1` [Example 39, 4′-chloro-N-[6-methyl-3-(1-pyrrolidinylmethyl)-7-quinolinyl][1,1′-biphenyl]-4-carboxamide] gave a melting point of 214 to 217 °C. `Cc1c(NC(=O)c2ccc(-c3ccc(OC(F)(F)F)cc3)cc2F)ccc2cc(CN3CCCC3)cnc12` [Example 136, 3-fluoro-N-[8-methyl-3-(1-pyrrolidinylmethyl)-7-quinolinyl]-4′-(trifluoromethoxy)[1,1′-biphenyl]-4-carboxamide] returned a melting point of 175 to 178 °C. The same measure for `Cc1cc2cc(CN3CCCC3)cnc2cc1NC(=O)c1ccc(-c2ccco2)cc1` [Example 224, 4-(2-furyl)-N-[6-methyl-3-(1-pyrrolidinylmethyl)-7-quinolinyl]benzamide]: 154 °C; for `Cc1ccc(-c2ccc(C(=O)Nc3ccc4cc(CN5CCCC5)cnc4c3C)cc2)cc1` [Example 20, 4′-methyl-N-[8-methyl-3-(1-pyrrolidinylmethyl)-7-quinolinyl][1,1′-biphenyl]-4-carboxamide]: 177 to 179 °C.

`CCc1ccc(-c2ccc(C(=O)Nc3cc4ncc(CN5CCCC5)cc4cc3C)cc2)cc1` [Example 217, 4′-ethyl-N-[6-methyl-3-(1-pyrrolidinylmethyl)-7-quinolinyl][1,1′-biphenyl]-4-carboxamide] had a melting point of 188 °C.

In turn, `Cc1cc(C(=O)Nc2ccc3cc(CN4CCCC4)cnc3c2C)ccc1-c1ccc(F)cc1` [Example 160, 4′-fluoro-2-methyl-N-[8-methyl-3-(1-pyrrolidinylmethyl)-7-quinolinyl][1,1′-biphenyl]-4-carboxamide] came in with a melting point of 200 to 202 °C. The same measure for `Cc1c(NC(=O)c2ccc(-c3ccc(F)cc3F)cc2F)ccc2cc(CN3CCCC3)cnc12` [Example 139, 2′,3,4′-trifluoro-N-[8-methyl-3-(1-pyrrolidinylmethyl)-7-quinolinyl][1,1′-biphenyl]-4-carboxamide]: 172 to 173 °C.

Take `Cc1ccccc1-c1ccc(C(=O)Nc2ccc3cc(CN4CCCC4)cnc3c2C)cc1` [Example 111, 2′-methyl-N-[8-methyl-3-(1-pyrrolidinylmethyl)-7-quinolinyl][1,1′-biphenyl]-4-carboxamide]: the melting point lay within 150 to 151 °C. The same measure for `Cc1c(NC(=O)c2ccc(-c3ccc(F)cc3)cc2F)ccc2cc(CN3CCCCC3)cnc12` [Example 170, 3,4′-difluoro-N-[8-methyl-3-(1-piperidinylmethyl)-7-quinolinyl][1,1′-biphenyl]-4-carboxamide]: 186 to 187 °C.

In the case of `Cc1cc2cc(CN3CCCC3)cnc2cc1NC(=O)c1ccc(-c2ccc(Cl)cc2)cc1F` [Example 230, 4′-chloro-3-fluoro-N-[6-methyl-3-(1-pyrrolidinylmethyl)-7-quinolinyl][1,1′-biphenyl]-4-carboxamide], the melting point fell in the range of 195 to 198 °C. The same measure for `O=C(Nc1ccc2cc(CN3CCCC3)cnc2c1F)c1ccc(-c2ccccc2)cc1` [Example 71, N-[8-fluoro-3-(1-pyrrolidinylmethyl)-7-quinolinyl][1,1′-biphenyl]-4-carboxamide]: 186 to 188 °C.

In the case of `Cc1ccc(-c2ccc(C(=O)Nc3ccc4cc(CN5CCCC5)cnc4c3C)cn2)cc1` [Example 94, 6-(4-methylphenyl)-N-[8-methyl-3-(1-pyrrolidinylmethyl)-7-quinolinyl]nicotinamide], the melting point was in the range of 178 to 180 °C. The same measure for `COc1ccc(-c2ccc(C(=O)Nc3cc4ncc(CN5CCCC5)cc4cc3F)cc2)cc1` [Example 53, N-[6-fluoro-3-(1-pyrrolidinylmethyl)-7-quinolinyl]-4′-methoxy[1,1′-biphenyl]-4-carboxamide]: 184 to 186 °C; for `O=C(Nc1ccc2cc(CN3CCCCCC3)cnc2c1)c1ccc(-c2ccccc2)cc1` [Example 31, N-[3-(1-azepanylmethyl)-7-quinolinyl][1,1′-biphenyl]-4-carboxamide]: 205 °C (dec.); for `Cc1cc2cc(CN3CCCCC3)cnc2cc1NC(=O)c1ccc(-c2ccc(F)cc2)cc1` [Example 250, 4′-fluoro-N-[6-methyl-3-(1-piperidinylmethyl)-7-quinolinyl][1,1′-biphenyl]-4-carboxamide]: 185 to 188 °C. The same measure for `COc1ccc(-c2ccc(C(=O)Nc3ccc4cc(CN5CCCC5)cnc4c3C)cc2F)cc1` [Example 152, 2-fluoro-4′-methoxy-N-[8-methyl-3-(1-pyrrolidinylmethyl)-7-quinolinyl][1,1′-biphenyl]-4-carboxamide]: 174 to 176 °C; for `CSc1ccc(-c2ccc(C(=O)Nc3ccc4cc(CN5CCCC5)cnc4c3C)c(F)c2)cc1` [Example 144, 3-fluoro-N-[8-methyl-3-(1-pyrrolidinylmethyl)-7-quinolinyl]-4′-(methylsulfanyl)[1,1′-biphenyl]-4-carboxamide]: 189 to 190 °C.
